Test results as given in the supplement of paper PMC11451515.

Tested on: SEM cells
Test: cell viability relative to DMSO control; higher = less cytotoxic
Settings: 48 h
Method in brief: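 Library compounds in DMSO were pin-dosed in an 11-point threefold series (47 μM to 0.79 nM) onto leukemia cells in 1536-well plates (5 μl). Plates held 500 cells/well of NOMO1 or SEM or 1000 cells/well of P12-Ichikawa, each adapted for at least four passages in each medium. Luminescence was read with CellTiter-Glo One after 48 h at 37°C. Viability means the per-plate percentage relative to DMSO wells, using cell-free wells as background.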

[1] = HPLM + 10% dialyzed FBS, 0.000781 µM
[2] = HPLM + 10% dialyzed FBS, 0.00234 µM
[3] = HPLM + 10% dialyzed FBS, 0.00702 µM
[4] = HPLM + 10% dialyzed FBS, 0.0211 µM
[5] = HPLM + 10% dialyzed FBS, 0.0632 µM
[6] = HPLM + 10% dialyzed FBS, 0.19 µM
[7] = HPLM + 10% dialyzed FBS, 0.569 µM
[8] = HPLM + 10% dialyzed FBS, 1.71 µM
[9] = HPLM + 10% dialyzed FBS, 5.12 µM
[10] = HPLM + 10% dialyzed FBS, 15.4 µM
[11] = HPLM + 10% dialyzed FBS, 46.1 µM
[12] = RPMI 5 mM glucose + 10% FBS, 0.000781 µM
[13] = RPMI 5 mM glucose + 10% FBS, 0.00234 µM
[14] = RPMI 5 mM glucose + 10% FBS, 0.00702 µM
[15] = RPMI 5 mM glucose + 10% FBS, 0.0211 µM
[16] = RPMI 5 mM glucose + 10% FBS, 0.0632 µM
[17] = RPMI 5 mM glucose + 10% FBS, 0.19 µM
[18] = RPMI 5 mM glucose + 10% FBS, 0.569 µM
[19] = RPMI 5 mM glucose + 10% FBS, 1.71 µM
[20] = RPMI 5 mM glucose + 10% FBS, 5.12 µM
[21] = RPMI 5 mM glucose + 10% FBS, 15.4 µM
[22] = RPMI 5 mM glucose + 10% FBS, 46.1 µM
[23] = RPMI 5 mM glucose + 10% dialyzed FBS, 0.000781 µM
[24] = RPMI 5 mM glucose + 10% dialyzed FBS, 0.00234 µM
[25] = RPMI 5 mM glucose + 10% dialyzed FBS, 0.00702 µM
[26] = RPMI 5 mM glucose + 10% dialyzed FBS, 0.0211 µM
[27] = RPMI 5 mM glucose + 10% dialyzed FBS, 0.0632 µM
[28] = RPMI 5 mM glucose + 10% dialyzed FBS, 0.19 µM
[29] = RPMI 5 mM glucose + 10% dialyzed FBS, 0.569 µM
[30] = RPMI 5 mM glucose + 10% dialyzed FBS, 1.71 µM
[31] = RPMI 5 mM glucose + 10% dialyzed FBS, 5.12 µM
[32] = RPMI 5 mM glucose + 10% dialyzed FBS, 15.4 µM
[33] = RPMI 5 mM glucose + 10% dialyzed FBS, 46.1 µM

Row | Compound | cell viability [1] | cell viability [2] | cell viability [3] | cell viability [4] | cell viability [5] | cell viability [6] | cell viability [7] | cell viability [8] | cell viability [9] | cell viability [10] | cell viability [11] | cell viability [12] | cell viability [13] | cell viability [14] | cell viability [15] | cell viability [16] | cell viability [17] | cell viability [18] | cell viability [19] | cell viability [20] | cell viability [21] | cell viability [22] | cell viability [23] | cell viability [24] | cell viability [25] | cell viability [26] | cell viability [27] | cell viability [28] | cell viability [29] | cell viability [30] | cell viability [31] | cell viability [32] | cell viability [33]
1 | Cc1coc2c1C(=O)C(=O)c1c-2ccc2c1CCCC2(C)C | 112% | 98.6% | 104% | 102% | 96.8% | 97% | 97.1% | 102% | 99.6% | 85.2% | 87.4% | 112% | 108% | 107% | 109% | 101% | 99.6% | 104% | 95.8% | 97.1% | 79.9% | 80.7% | 96.7% | 99.7% | 102% | 97.4% | 90.3% | 88% | 82.6% | 76% | 75.1% | 78.4% | 84.3%
2 | CCOC(=O)C(C)OC1=CC=CC2=C1\C=C/N(CC(=O)NC3=CC=C4OCCOC4=C3)C2=O (configuration not stated) | 77.7% | 85.4% | 92.1% | 93% | 102% | 92.3% | 92.4% | 97.4% | 103% | 100% | 102% | 80.1% | 87.8% | 88% | 88% | 93.2% | 90.2% | 93.5% | 95% | 109% | 98.1% | 92.6% | 90.1% | 94.9% | 102% | 89% | 85.4% | 98% | 99.2% | 104% | 99.1% | 88.2% | 112%
3 | COc1ccc2c(c1)CN(C)CC2c1ccc(Cl)c(Cl)c1 (configuration not stated) | 78% | 104% | 121% | 102% | 122% | 109% | 133% | 117% | 126% | 117% | 58.7% | 95.5% | 112% | 140% | 108% | 136% | 136% | 131% | 123% | 128% | 125% | 74.5% | 89.2% | 109% | 133% | 104% | 138% | 168% | 157% | 150% | 143% | 141% | 109%
4 | N[C@@H]1CONC1=O | 99.7% | 100% | 103% | 97.7% | 104% | 109% | 107% | 98.5% | 104% | 103% | 118% | 91.3% | 96% | 84.7% | 93.5% | 86% | 93.3% | 108% | 94.9% | 89.6% | 92.2% | 92.4% | 91.2% | 81.3% | 89.7% | 89.2% | 97.8% | 87.4% | 101% | 93.7% | 81.6% | 101% | 80.6%
5 | C=C[C@H]1CN2CCC1C[C@@H]2C(O)c1ccnc2ccc(OC)cc12 (some centres not stated) | 118% | 146% | 116% | 22.4% | 131% | 115% | 121% | 111% | 126% | 113% | 111% | 67.5% | 77.6% | 104% | 11.3% | 99.7% | 96.1% | 82% | 77% | 94.6% | 84.6% | 63% | 121% | 123% | 138% | 23.6% | 129% | 121% | 112% | 127% | 131% | 132% | 97.5%
6 | CCCCCNC(=O)N1CCC(CN(Cc2ccc(Cl)cc2)Cc2ccc([N+](=O)[O-])s2)C1 (configuration not stated) |  |  |  |  |  |  |  |  |  |  |  | 113% | 118% | 129% | 116% | 134% | 120% | 122% | 126% | 121% | 79.5% | 56.1% | 113% | 134% | 108% | 107% | 114% | 128% | 121% | 127% | 132% | 102% | 48.2%
7 | CN1CCCN(CC1)C2=CC=C3C(=O)\C(=C/4SC5=C(C=CC=C5)N4C3=N2)C(=O)NCC6=CN=C(C)C=N6 | 110% | 102% | 114% | 91.7% | 97.9% | 103% | 82.2% | 88.1% | 81.2% | 73.6% | 41.6% |  |  |  |  |  |  |  |  |  |  |  | 89.6% | 93.9% | 97.5% | 92.7% | 98.1% | 79.5% | 68.2% | 71.3% | 70.5% | 56.3% | 33.1%
8 | COc1ccc(C(=O)CC2(O)C(=O)Nc3c(Cl)ccc(Cl)c32)cc1 (configuration not stated) | 87% | 108% | 111% | 110% | 104% | 109% | 113% | 107% | 45.9% | 20.5% | 16.2% | 75.7% | 98.4% | 99.7% | 79.3% | 94.1% | 85.1% | 81.2% | 65.7% | 41.4% | 10.7% | 9.15% | 94.8% | 101% | 107% | 88.9% | 104% | 107% | 107% | 90.3% | 47.3% | 20.4% | 14.9%
9 | O=C(c1ccccc1)c1ccc2n1CCC2C(=O)O (configuration not stated) | 117% | 118% | 104% | 107% | 114% | 113% | 112% | 113% | 81.9% | 67.8% | 77.6% |  |  |  |  |  |  |  |  |  |  |  | 124% | 121% | 129% | 134% | 125% | 121% | 118% | 114% | 90.3% | 59.4% | 72.2%
10 | Cc1csc(-c2nnc(Nc3ccc(Oc4ncccc4-c4ccnc(N)n4)cc3)c3ccccc23)c1 | 104% | 114% | 114% | 56% | 46% | 48.9% | 45% | 42.1% | 32.5% | 36.5% | 34.2% | 108% | 100% | 102% | 55.2% | 25.5% | 24.5% | 23.9% | 28.6% | 18.7% | 18.7% | 21% | 94% | 107% | 115% | 36.4% | 30% | 34% | 34.6% | 29.1% | 29.5% | 28.5% | 28.5%
11 | CC1=CC(=CC(=C1C\C2=N\CCN2)C)C(C)(C)C | 58.5% | 90.1% | 83.4% | 100% | 88.3% | 98.1% | 97.4% | 100% | 106% | 107% | 77.6% | 77.8% | 104% | 91.7% | 101% | 103% | 96.4% | 110% | 104% | 110% | 83.3% | 94.9% | 89.1% | 96.3% | 102% | 105% | 118% | 107% | 118% | 112% | 113% | 120% | 94.7%
12 | CC(=O)Oc1ccccc1C(=O)Nc1ncc([N+](=O)[O-])s1 | 85.4% | 88.9% | 89% | 91.3% | 84.3% | 107% | 98.3% | 104% | 96.9% | 93.1% | 66.3% | 85% | 100% | 92.6% | 101% | 90.5% | 107% | 94.7% | 101% | 104% | 85.4% | 79.6% | 87.1% | 93% | 99.6% | 100% | 108% | 106% | 101% | 104% | 100% | 94.2% | 82.7%
13 | COC(=O)C\1=C(C)\N\C(=C(/C1C2=CC=CC3=NON=C23)C(=O)OC(C)C)C (configuration not stated) | 105% | 98.6% | 97.7% | 105% | 109% | 100% | 95% | 83.6% | 110% | 90.4% | 80.1% | 87.2% | 96.4% | 107% | 126% | 101% | 100% | 98.2% | 95% | 85.5% | 88% | 78.6% | 98.9% | 96.9% | 104% | 110% | 111% | 114% | 114% | 95.2% | 87.2% | 99.2% | 70.8%
14 | CNC(=O)c1ccc(Nc2cc(Nc3ccccc3[S+](=O)([O-])C(C)C)c3cc[nH]c3n2)nc1 | 81.7% | 76.4% | 96.5% | 90.7% | 89.8% | 98.3% | 82.9% | 38.2% | 28.4% | 24.3% | 16.8% | 93.5% | 118% | 106% | 114% | 104% | 102% | 101% | 48.9% | 20.8% | 17.7% | 6.52% | 83.9% | 99.4% | 98.5% | 94.7% | 102% | 97.6% | 85% | 27% | 20.1% | 17.4% | 7.56%
15 | CC(C(=O)O)c1ccc2c(c1)CC(=O)c1ccccc1S2 (configuration not stated) | 99.9% | 117% | 109% | 115% | 94.3% | 112% | 95.4% | 114% | 126% | 116% | 115% | 111% | 109% | 116% | 104% | 103% | 105% | 117% | 121% | 99.4% | 107% | 96.5% | 122% | 115% | 129% | 133% | 124% | 108% | 116% | 117% | 110% | 129% | 118%
